Results taken from the supplement of paper PMC11451515.

System: SEM cells
Test: cell viability relative to DMSO control; higher = less cytotoxic
Details: 48 h
Outline: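 Library compounds in DMSO were pin-dosed into 1536-well plates (5 μl) holding NOMO1 or SEM (500 cells/well) or P12-Ichikawa (1000 cells/well) leukemia cells, across an 11-point threefold series of 47 μM to 0.79 nM. Each cell line had been adapted for at least four passages in each medium. CellTiter-Glo One luminescence was read after 48 h at 37°C. Viability is the per-plate percentage relative to DMSO wells, with cell-free wells as background.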

[1] = HPLM + 10% dialyzed FBS, 0.000781 µM
[2] = HPLM + 10% dialyzed FBS, 0.00234 µM
[3] = HPLM + 10% dialyzed FBS, 0.00702 µM
[4] = HPLM + 10% dialyzed FBS, 0.0211 µM
[5] = HPLM + 10% dialyzed FBS, 0.0632 µM
[6] = HPLM + 10% dialyzed FBS, 0.19 µM
[7] = HPLM + 10% dialyzed FBS, 0.569 µM
[8] = HPLM + 10% dialyzed FBS, 1.71 µM
[9] = HPLM + 10% dialyzed FBS, 5.12 µM
[10] = HPLM + 10% dialyzed FBS, 15.4 µM
[11] = HPLM + 10% dialyzed FBS, 46.1 µM
[12] = RPMI 5 mM glucose + 10% FBS, 0.000781 µM
[13] = RPMI 5 mM glucose + 10% FBS, 0.00234 µM
[14] = RPMI 5 mM glucose + 10% FBS, 0.00702 µM
[15] = RPMI 5 mM glucose + 10% FBS, 0.0211 µM
[16] = RPMI 5 mM glucose + 10% FBS, 0.0632 µM
[17] = RPMI 5 mM glucose + 10% FBS, 0.19 µM
[18] = RPMI 5 mM glucose + 10% FBS, 0.569 µM
[19] = RPMI 5 mM glucose + 10% FBS, 1.71 µM
[20] = RPMI 5 mM glucose + 10% FBS, 5.12 µM
[21] = RPMI 5 mM glucose + 10% FBS, 15.4 µM
[22] = RPMI 5 mM glucose + 10% FBS, 46.1 µM
[23] = RPMI 5 mM glucose + 10% dialyzed FBS, 0.000781 µM
[24] = RPMI 5 mM glucose + 10% dialyzed FBS, 0.00234 µM
[25] = RPMI 5 mM glucose + 10% dialyzed FBS, 0.00702 µM
[26] = RPMI 5 mM glucose + 10% dialyzed FBS, 0.0211 µM
[27] = RPMI 5 mM glucose + 10% dialyzed FBS, 0.0632 µM
[28] = RPMI 5 mM glucose + 10% dialyzed FBS, 0.19 µM
[29] = RPMI 5 mM glucose + 10% dialyzed FBS, 0.569 µM
[30] = RPMI 5 mM glucose + 10% dialyzed FBS, 1.71 µM
[31] = RPMI 5 mM glucose + 10% dialyzed FBS, 5.12 µM
[32] = RPMI 5 mM glucose + 10% dialyzed FBS, 15.4 µM
[33] = RPMI 5 mM glucose + 10% dialyzed FBS, 46.1 µM

Compound | cell viability [1] | cell viability [2] | cell viability [3] | cell viability [4] | cell viability [5] | cell viability [6] | cell viability [7] | cell viability [8] | cell viability [9] | cell viability [10] | cell viability [11] | cell viability [12] | cell viability [13] | cell viability [14] | cell viability [15] | cell viability [16] | cell viability [17] | cell viability [18] | cell viability [19] | cell viability [20] | cell viability [21] | cell viability [22] | cell viability [23] | cell viability [24] | cell viability [25] | cell viability [26] | cell viability [27] | cell viability [28] | cell viability [29] | cell viability [30] | cell viability [31] | cell viability [32] | cell viability [33]
c1coc(CNc2ncnc3nc[nH]c23)c1 | 112% | 101% | 112% | 103% | 116% | 118% | 123% | 110% | 130% | 127% | 103% | 110% | 120% | 116% | 121% | 124% | 110% | 119% | 120% | 143% | 119% | 105% | 105% | 115% | 106% | 114% | 111% | 114% | 97.4% | 109% | 115% | 119% | 96.1%
NCCOc1cc(C(=O)Nc2cc(OCCN)c3ccccc3n2)nc(C(=O)Nc2cc(OCCN)c3ccccc3n2)c1 | 47.6% | 56.1% | 36.1% | 23.8% | 19.4% | 22.9% | 22.8% | 21.5% | 22.2% | 31.1% | 46.3% | 23.9% | 19.8% | 23.7% | 21.1% | 22.1% | 23.6% | 23.2% | 19.3% | 27.5% | 32.6% | 61.1% | 67.3% | 58.4% | 42.6% | 25.6% | 22.9% | 20% | 22.9% | 25.4% | 21.7% | 38.2% | 59.5%
Cc1cc(/C=c2/sc3nc4ccccc4n3c2=O)c(C)n1-c1ccccc1 | 115% | 121% | 93.5% | 122% | 112% | 128% | 125% | 108% | 128% | 110% | 101% | 117% | 119% | 113% | 137% | 117% | 122% | 130% | 128% | 125% | 125% | 118% | 117% | 110% | 99.1% | 121% | 128% | 122% | 108% | 118% | 111% | 113% | 116%
O=C(O)c1cccc(-c2noc(-c3ccccc3F)n2)c1 | 106% | 109% | 92.3% | 100% | 101% | 110% | 102% | 104% | 104% | 92.3% | 88.1% | 88.1% | 94.7% | 105% | 94.1% | 99.6% | 107% | 101% | 99.3% | 98.3% | 84.3% | 73.5% | 87.1% | 106% | 106% | 108% | 115% | 94.2% | 122% | 112% | 108% | 95.7% | 85.7%
Cc1nc(-c2ccc(-c3ccc(C(=O)N4CCc5cc6c(cc54)C4(CCN(C)CC4)CO6)cc3)c(C)c2)no1 | 88.4% | 104% | 108% | 106% | 119% | 97.4% | 114% | 108% | 117% | 136% | 123% | 114% | 102% | 107% | 105% | 99.3% | 112% | 114% | 101% | 117% | 107% | 113% | 108% | 99.7% | 103% | 95.4% | 92.5% | 96% | 104% | 96.5% | 92.8% | 100% | 103%
CN(C[C@@H]1COCCO1)[S+]([O-])(=O)NC2=CC3=C(C=C2)\C=C/C4=C(C=C(C=N4)C5=C[N](C)N=C5)C3=O | 85.5% | 93.9% | 92.6% | 86.4% | 79.5% | 80.8% | 69.9% | 48.8% | 29.8% | 22.4% | 24.8% | 113% | 86.6% | 110% | 109% | 85.5% | 76.3% | 53.1% | 35.2% | 22.2% | 16% | 16.4% | 78.9% | 96.4% | 91.2% | 86.8% | 85.2% | 66.3% | 60.8% | 38.5% | 24.5% | 17.3% | 18.3%
OC(=O)CNC(=O)\C1=C(/O)C2=CC=CC=C2N(CC3=CC=CC=C3)C1=O | 106% | 104% | 105% | 125% | 54% | 99.2% | 116% | 104% | 111% | 102% | 106% | 98.1% | 103% | 117% | 112% | 17.9% | 104% | 107% | 94.7% | 106% | 97.4% | 88.9% | 121% | 116% | 111% | 106% | 89.3% | 117% | 119% | 114% | 105% | 86.3% | 109%
Cc1nc2ccc(CN(C)c3ccc(C(=O)N[C@@H](CCC(=O)O)C(=O)O)s3)cc2c(=O)[nH]1 | 90.3% | 93.1% | 101% | 103% | 64.1% | 45% | 41.4% | 42.7% | 35.4% | 39.3% | 38.3% | 96.5% | 115% | 103% | 104% | 118% | 99% | 93% | 85.6% | 83.3% | 82.1% | 82.1% | 98.7% | 113% | 113% | 118% | 106% | 45.9% | 33.2% | 35.3% | 29.6% | 32.4% | 30.5%
C[C@H](NC(=O)[C@@H](O)c1cc(F)cc(F)c1)C(=O)N[C@@H]1C(=O)N(C)c2ccccc2-c2ccccc21 |  |  |  |  |  |  |  |  |  |  |  | 120% | 121% | 120% | 135% | 122% | 128% | 107% | 115% | 111% | 121% | 85.9% |  |  |  |  |  |  |  |  |  |  | 
CC[C@H]1OC(=O)[C@H](C)[C@@H](O[C@H]2C[C@@](C)(OC)[C@@H](O)[C@H](C)O2)[C@H](C)[C@@H](O[C@@H]2O[C@H](C)C[C@H](N(C)C)[C@H]2O)[C@](C)(O)C[C@@H](C)/C(=N\OCOCCOC)[C@H](C)[C@@H](O)[C@]1(C)O | 95.3% | 89% | 95.1% | 95.3% | 105% | 83.1% | 76.7% | 93.6% | 85.2% | 80.5% | 73.4% | 107% | 98.1% | 109% | 108% | 111% | 87.4% | 94.6% | 97.5% | 96.9% | 87.9% | 95.6% | 103% | 104% | 107% | 116% | 108% | 96.3% | 92.9% | 103% | 100% | 93.8% | 71.7%
Cc1nnc(C(C)C)n1[C@@H]1C[C@H]2CC[C@@H](C1)N2CC[C@H](NC(=O)C1CCC(F)(F)CC1)c1ccccc1 | 83.1% | 90.9% | 95.8% | 95% | 77.2% | 98.3% | 105% | 98% | 102% | 64.9% | 57.1% | 78.9% | 74.3% | 82.2% | 93.4% | 86.1% | 103% | 84.9% | 85.6% | 86.1% | 43.6% | 38.6% | 84.6% | 90.5% | 101% | 90.1% | 88.9% | 103% | 87.8% | 103% | 105% | 51.8% | 40.2%
Clc1ccc(CCC(Cn2ccnc2)Sc2c(Cl)cccc2Cl)cc1 (centres undefined) | 73% | 71.5% | 77.3% | 83.5% | 72.8% | 95% | 76.3% | 77.3% | 80.1% | 76.8% | 61.2% | 78.7% | 88% | 97.7% | 89.7% | 85.7% | 83.6% | 101% | 100% | 92.6% | 86.1% | 52.5% | 78.8% | 88.7% | 100% | 92.5% | 82% | 103% | 89.4% | 77.4% | 76.9% | 85.3% | 57.3%
CCC[C@H](Nc1nc(-c2ccc(NC(=O)NCC)c(OC)c2)ncc1C)c1cccnc1 | 87.7% | 108% | 94% | 112% | 27.2% | 28.4% | 26.7% | 19.4% | 12.9% | 13.1% | 10.7% | 4.71% | 78.8% | 84.3% | 114% | 16.5% | 21% | 17.2% | 10.4% | 6.57% | 6.69% | 3.95% | 102% | 105% | 87.1% | 134% | 23.6% | 23.7% | 24.9% | 10.9% | 7.58% | 7.31% | 4.35%
COc1cc2cc(c1Cl)N(C)C(=O)C[C@H](OC(=O)C(C)C)[C@]1(C)O[C@@H]1[C@H](C)[C@@H]1C[C@@](O)(NC(=O)O1)[C@H](OC)/C=C/C=C(\C)C2 | 27.9% | 26% | 28.5% | 22.6% | 15.2% | 9.09% | 7.19% | 6.56% | 5.59% | 4.17% | 2.54% | 21.3% | 24.2% | 21.4% | 12.7% | 9.24% | 8.39% | 7.82% | 6.35% | 4.76% | 4.03% | 2.1% | 24.3% | 24% | 20.2% | 14.5% | 8.42% | 5.55% | 5.76% | 5.03% | 4.42% | 3.49% | 1.84%
COc1cc(C[C@@H](CO)[C@H](CO)Cc2ccc(O)c(OC)c2)ccc1O | 84% | 89.3% | 92.1% | 95% | 104% | 109% | 114% | 107% | 111% | 89.1% | 105% | 91.8% | 85.1% | 88.4% | 81.8% | 91.7% | 105% | 106% | 104% | 105% | 110% | 93.3% | 85.7% | 92.7% | 98.1% | 99.7% | 113% | 102% | 105% | 112% | 108% | 108% | 110%
COc1ccc(-n2c(C)c([N+](=O)[O-])c3ccc(O)cc32)cc1 |  |  |  |  |  |  |  |  |  |  |  | 102% | 103% | 111% | 107% | 120% | 109% | 108% | 122% | 127% | 121% | 98.5% |  |  |  |  |  |  |  |  |  |  | 
